Source: PubChem BioAssay (NCI)
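Values below derive from 48-hour exposures of cells grown in 96-well plates, with endpoints linearly interpolated between the two concentrations bracketing the appropriate inhibition level. GI50 marks 50% less growth. Definition used: TGI = concentration required for complete inhibition of growth.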

How the values were obtained:
Assay in all cases: NCI anticancer screen, dose series, 48 h
[1] = test system: NCI/ADR-RES ovarian
[2] = test system: OVCAR-3 ovarian
[3] = test system: SK-MEL-2 melanoma
[4] = test system: SNB-75 CNS
[5] = test system: SR leukemia
[6] = test system: EKVX NSCLC
[7] = test system: OVCAR-8 ovarian
[8] = test system: UACC-62 melanoma
[9] = test system: SN12C renal
[10] = test system: SF-539 CNS
[11] = test system: SW-620 colon
[12] = test system: HCT-15 colon
[13] = test system: KM12 colon
[14] = test system: T-47D breast
[15] = test system: HL-60(TB) leukemia
[16] = test system: MDA-MB-435
[17] = test system: DU-145 prostate
[18] = test system: NCI-H522 lung
[19] = test system: HCT-116 colon
[20] = test system: MALME-3M melanoma
[21] = test system: BT-549 breast
[22] = test system: IGROV1 ovarian
[23] = test system: RXF 393 renal
[24] = test system: NCI-H460 lung
[25] = test system: HS 578T breast
[26] = test system: COLO 205 colon
[27] = test system: HT29 colon
[28] = test system: A549 NSCLC
[29] = test system: HOP-62 NSCLC
[30] = test system: CAKI-1 renal
[31] = test system: SF-295 CNS
[32] = test system: UACC-257 melanoma
[33] = test system: M14 melanoma
[34] = test system: 786-0 renal
[35] = test system: OVCAR-5 ovarian
[36] = test system: HOP-92 NSCLC
[37] = test system: SNB-19 CNS
[38] = test system: SK-OV-3 ovarian
[39] = test system: SK-MEL-28 melanoma
[40] = test system: UO-31 renal
[41] = test system: ACHN renal
[42] = test system: CCRF-CEM leukemia
[43] = test system: OVCAR-4 ovarian
[44] = test system: MDA-MB-231 breast
[45] = test system: U251 CNS
[46] = test system: TK-10 renal
[47] = test system: A498 renal
[48] = test system: SK-MEL-5 melanoma
[49] = test system: HCC-2998 colon
[50] = test system: PC-3 prostate
[51] = test system: NCI-H226 lung

In the case of `COc1ccc(-c2nc(/C=N/Nc3cc(C)nc4ccc(Br)cc34)c(C)o2)cc1`, the GI50 [1] is reported as 2.03 µM, the TGI [1] is reported as 4.48 µM and the GI50 [2] is reported as 1.84 µM. It also gave a TGI [2] of 3.41 µM, a GI50 [3] of 1.99 µM and a TGI [3] of 3.9 µM. The GI50 [4] was 1.68 µM, the TGI [4] was 3.28 µM and the GI50 [5] was 0.315 µM. The TGI [5] was 1.59 µM, the GI50 [6] was 1.93 µM and the TGI [6] was 3.44 µM. The GI50 [7] was 1.79 µM, the TGI [7] was 3.86 µM and the GI50 [8] was 1.76 µM. The TGI [8] was 3.34 µM, the GI50 [9] was 1.93 µM and the TGI [9] was 3.62 µM. For the same compound, the GI50 [10] was 1.83 µM, the TGI [10] was 3.3 µM and the GI50 [11] was 0.415 µM. For the same compound, the TGI [11] was 1.56 µM, the GI50 [12] was 0.902 µM and the TGI [12] was 2.33 µM. The GI50 [13] was 1.8 µM, the TGI [13] was 3.62 µM and the GI50 [14] was 1.78 µM. The TGI [14] was 3.69 µM, the GI50 [15] was 1.49 µM and the TGI [15] was 3.47 µM. For the same compound, the GI50 [16] was 1.68 µM, the TGI [16] was 3.1 µM and the GI50 [17] was 1.75 µM. For the same compound, the TGI [17] was 3.34 µM, the GI50 [18] was 1.8 µM and the TGI [18] was 3.67 µM. It also gave a GI50 [19] of 1.84 µM, a TGI [19] of 3.36 µM and a GI50 [20] of 1.98 µM. It also gave a TGI [20] of 3.67 µM, a GI50 [21] of 1.67 µM and a TGI [21] of 3.11 µM. For the same compound, the GI50 [22] was 1.72 µM, the TGI [22] was 3.36 µM and the GI50 [23] was 1.44 µM. The TGI [23] was 2.93 µM, the GI50 [24] was 1.93 µM and the TGI [24] was 3.73 µM. The GI50 [25] was 2.02 µM, the TGI [25] was 4.1 µM and the GI50 [26] was 1.67 µM. It also gave a TGI [26] of 3.35 µM, a GI50 [27] of 1.62 µM and a TGI [27] of 3.24 µM. It also gave a GI50 [28] of 1.74 µM, a TGI [28] of 3.33 µM and a GI50 [29] of 1.67 µM. The TGI [29] was 3.25 µM, the GI50 [30] was 1.62 µM and the TGI [30] was 2.98 µM. The GI50 [31] was 1.9 µM, the TGI [31] was 3.49 µM and the GI50 [32] was 1.94 µM. The TGI [32] was 3.57 µM, the GI50 [33] was 1.78 µM and the TGI [33] was 3.39 µM. The GI50 [34] was 1.71 µM, the TGI [34] was 3.22 µM and the GI50 [35] was 1.95 µM. It also gave a TGI [35] of 3.41 µM, a GI50 [36] of 1.45 µM and a TGI [36] of 3.06 µM. It also gave a GI50 [37] of 1.95 µM, a TGI [37] of 3.73 µM and a GI50 [38] of 1.7 µM. The TGI [38] was 3.12 µM, the GI50 [39] was 1.79 µM and the TGI [39] was 3.23 µM. For the same compound, the GI50 [40] was 1.52 µM, the TGI [40] was 2.89 µM and the GI50 [41] was 1.73 µM. For the same compound, the TGI [41] was 3.11 µM, the GI50 [42] was 0.732 µM and the TGI [42] was 3.38 µM. It also gave a GI50 [43] of 1.72 µM, a TGI [43] of 3.31 µM and a GI50 [44] of 1.93 µM. For the same compound, the TGI [44] was 3.72 µM, the GI50 [45] was 1.86 µM and the TGI [45] was 3.39 µM. The GI50 [46] was 1.97 µM, the TGI [46] was 3.45 µM and the GI50 [47] was 1.49 µM. For the same compound, the TGI [47] was 2.89 µM, the GI50 [48] was 1.78 µM and the TGI [48] was 3.18 µM. For the same compound, the GI50 [49] was 1.96 µM, the TGI [49] was 3.65 µM and the GI50 [50] was 1.67 µM. It also gave a TGI [50] of 3.2 µM, a GI50 [51] of 2.09 µM and a TGI [51] of 4.64 µM.
